Values joined by “and” are separate entries in the source; they are usually repeats but may differ in a detail not shown here. Identical values can stand only once. Inconclusive results and toxic doses are left out.

This passage reports T/C results from PubChem BioAssay AID196 (DTP/NCI, 2004).

For the test, the system named is BDF1 mice, intracerebral B16 melanoma, median survival T/C. The experiment in a line: NCI In Vivo Anticancer Drug Screen. Data for tumor model B16 Melanoma (intracerebral) in B6D2F1 (BDF1) mice. Conditions: endpoint: median survival time, higher = longer survival. The procedure: The antitumor activity of compounds was measured in mice bearing transplantable tumors. Survival or tumor size were measured and the results are expressed as the measurement made in the treated group (T) divided by the measurement made in the vehicle treated control group (C). The tumor model used in this assay is B16 Melanoma (intracerebral) in B6D2F1 (BDF1) mice

The mark [1] stands for this setting: dose: 128.0 mg/kg/injection, schedule: Q01DX009 (ip), vehicle: Klucel (hydroxypropylcellulose) (HPC).
The mark [2] stands for this setting: dose: 256.0 mg/kg/injection, schedule: Q01DX009 (ip), vehicle: Klucel (hydroxypropylcellulose) (HPC).
Setting [3] is: dose: 10.0 mg/kg/injection, schedule: Q01DX009 (ip), vehicle: saline.

For `NC(C/[N+]([O-])=N/O)C(=O)O` (configuration not stated), the T/C is, setting by setting: (dose: 3.5 mg/kg/injection, schedule: Q01DX009 (ip), vehicle: saline) 97 % of control; (dose: 7.0 mg/kg/injection, schedule: Q01DX009 (ip), vehicle: saline) 87 % of control; (dose: 12.5 mg/kg/injection, schedule: Q01DX009 (ip), vehicle: Klucel (hydroxypropylcellulose) (HPC)) 107 % of control; (dose: 14.0 mg/kg/injection, schedule: Q01DX009 (ip), vehicle: saline) 89 % of control; (dose: 25.0 mg/kg/injection, schedule: Q01DX009 (ip), vehicle: Klucel (hydroxypropylcellulose) (HPC)) 100 % of control; (dose: 56.25 mg/kg/injection, schedule: Q01DX009 (ip), vehicle: saline) 101 % of control.
As for `O=C1NC2(CCCCC2)C(=O)N1CCN(CCCl)CCCl`, the T/C is 97 % of control (dose: 1.5 mg/kg/injection, schedule: Q01DX009 (ip), vehicle: saline with Tween-80); 103 % of control (dose: 3.0 mg/kg/injection, schedule: Q01DX009 (ip), vehicle: saline with Tween-80); 106 % of control (dose: 6.0 mg/kg/injection, schedule: Q01DX009 (ip), vehicle: saline with Tween-80); 103 % of control (dose: 12.0 mg/kg/injection, schedule: Q01DX009 (ip), vehicle: saline with Tween-80).
On to `COCC(O)Cn1ccnc1[N+](=O)[O-]` (configuration not stated), for which the T/C by setting is: under setting [1], 89 % of control; under setting [2], 86 % of control.
In the case of `NC(=O)N(CCCl)N=O`, the T/C (dose: 1.0 mg/kg/injection, schedule: Q01DX001 (ip), vehicle: saline + alcohol) is 102 % of control; the T/C (dose: 2.0 mg/kg/injection, schedule: Q01DX001 (ip), vehicle: saline + alcohol) was 112 % of control; the T/C (dose: 4.0 mg/kg/injection, schedule: Q01DX001 (ip), vehicle: saline + alcohol) is 121 % of control.
For `CNc1nc(N(C)C)nc(N(C)C)n1`, where the note is “dose: 12.5 mg/kg/injection, schedule: Q01DX009 (ip), vehicle: saline”, the T/C is 102 % of control and 106 % of control.
For the compound `C[C@@H]1C[C@H]2[C@@H]3CCC4=CC(=O)C=C[C@]4(C)[C@@]3(F)[C@@H](O)C[C@]2(C)[C@@]1(O)C(=O)CO`, the T/C was 108 % of control (dose: 0.75 mg/kg/injection, schedule: Q01DX009 (ip), vehicle: saline); 104 % of control (dose: 1.5 mg/kg/injection, schedule: Q01DX009 (ip), vehicle: saline); 118 % of control and 104 % of control (dose: 3.0 mg/kg/injection, schedule: Q01DX009 (ip), vehicle: saline); 104 % of control and 112 % of control (dose: 6.0 mg/kg/injection, schedule: Q01DX009 (ip), vehicle: saline); 122 % of control (dose: 12.0 mg/kg/injection, schedule: Q01DX009 (ip), vehicle: saline).
Regarding `Cc1c2ccncc2c(C)c2c1[nH]c1ccccc12`, the T/C under setting [3] was 113 % of control.
Consider `O=NN(CCF)C(=O)NC1C(O)CCCC1O` (configuration not stated), for which the T/C by setting is: (dose: 13.0 mg/kg/injection, schedule: Q01DX001 (ip), vehicle: saline) 115 % of control; (dose: 17.8 mg/kg/injection, schedule: Q01DX001 (ip), vehicle: Klucel (hydroxypropylcellulose) (HPC)) 120 % of control; (dose: 21.6 mg/kg/injection, schedule: Q01DX001 (ip), vehicle: saline) 111 % of control; (dose: 40.0 mg/kg/injection, schedule: Q01DX001 (ip), vehicle: Klucel (hydroxypropylcellulose) (HPC)) 160 % of control; (dose: 60.0 mg/kg/injection, schedule: Q01DX001 (ip), vehicle: Klucel (hydroxypropylcellulose) (HPC)) 171 % of control; (dose: 60.0 mg/kg/injection, schedule: Q01DX001 (ip), vehicle: saline) 189 % of control.
For `CN(C)N=Nc1cccc2c1N(C)c1ccc(Cl)cc1S2`, the T/C reads like this: (dose: 6.25 mg/kg/injection, schedule: Q01DX009 (ip), vehicle: other) 103 % of control; (dose: 12.5 mg/kg/injection, schedule: Q01DX009 (ip), vehicle: other) 100 % of control; (dose: 25.0 mg/kg/injection, schedule: Q01DX009 (ip), vehicle: other) 108 % of control; (dose: 50.0 mg/kg/injection, schedule: Q01DX009 (ip), vehicle: other) 101 % of control; (dose: 100.0 mg/kg/injection, schedule: Q01DX009 (ip), vehicle: other) 101 % of control.
For the compound `N[C@@H](Cc1ccc(N(CCCl)CCCl)cc1)C(=O)O`, the T/C was 95 % of control (dose: 0.5 mg/kg/injection, schedule: Q01DX009 (ip), vehicle: saline); 100 % of control (dose: 0.5 mg/kg/injection, schedule: Q01DX009 (ip), vehicle: water); 100 % of control (dose: 1.0 mg/kg/injection, schedule: Q01DX009 (ip), vehicle: saline); 104 % of control (dose: 1.0 mg/kg/injection, schedule: Q01DX009 (ip), vehicle: water); 120 % of control (dose: 2.0 mg/kg/injection, schedule: Q01DX009 (ip), vehicle: saline); 116 % of control (dose: 2.0 mg/kg/injection, schedule: Q01DX009 (ip), vehicle: water). For the setting “dose: 4.0 mg/kg/injection, schedule: Q01DX009 (ip), vehicle: saline”, the T/C is 87 % of control.
With `Nc1n[nH]c(N)n1`, the T/C runs as follows: (dose: 128.0 mg/kg/injection, schedule: Q01DX005 (ip), vehicle: saline) 95 % of control and 111 % of control; (dose: 256.0 mg/kg/injection, schedule: Q01DX005 (ip), vehicle: saline) 97 % of control and 106 % of control; (dose: 512.0 mg/kg/injection, schedule: Q01DX005 (ip), vehicle: saline) 116 % of control and 103 % of control; (dose: 1024.0 mg/kg/injection, schedule: Q01DX005 (ip), vehicle: saline) 118 % of control and 93 % of control.
For the compound `CCCCCC(=O)O[C@]1(C(C)=O)CC[C@H]2[C@@H]3CCC4=CC(=O)CC[C@]4(C)[C@H]3CC[C@@]21C`, the T/C (dose: 8.0 mg/kg/injection, schedule: Q01DX009 (ip), vehicle: Klucel (hydroxypropylcellulose) (HPC)) was 100 % of control; the T/C (dose: 16.0 mg/kg/injection, schedule: Q01DX009 (ip), vehicle: Klucel (hydroxypropylcellulose) (HPC)) is 101 % of control; the T/C (dose: 32.0 mg/kg/injection, schedule: Q01DX009 (ip), vehicle: Klucel (hydroxypropylcellulose) (HPC)) is 100 % of control; the T/C (dose: 64.0 mg/kg/injection, schedule: Q01DX009 (ip), vehicle: Klucel (hydroxypropylcellulose) (HPC)) is 100 % of control; the T/C under setting [1] is 98 % of control; the T/C under setting [2] was 94 % of control. Further, the T/C (dose: 512.0 mg/kg/injection, schedule: Q01DX009 (ip), vehicle: Klucel (hydroxypropylcellulose) (HPC)) is 101 % of control.
Turning to `COc1cc2c(c3c1c(=O)c1ccccc1n3C)C=CC(C)(C)O2`, the T/C is 121 % of control (dose: 16.0 mg/kg/injection, schedule: Q01DX005 (ip), vehicle: Klucel (hydroxypropylcellulose) (HPC)); 104 % of control (dose: 32.0 mg/kg/injection, schedule: Q01DX005 (ip), vehicle: Klucel (hydroxypropylcellulose) (HPC)); 115 % of control (dose: 64.0 mg/kg/injection, schedule: Q01DX005 (ip), vehicle: Klucel (hydroxypropylcellulose) (HPC)).
In the case of `c1ccc([C@H]2CN3CCSC3=N2)cc1`, the T/C by setting is: (dose: 5.0 mg/kg/injection, schedule: Q01DX009 (ip), vehicle: saline) 98 % of control and 105 % of control; (dose: 10.0 mg/kg/injection, schedule: Q01DX005 (ip), vehicle: saline) 120 % of control and 93 % of control; under setting [3], 89 % of control and 94 % of control and 98 % of control; (dose: 20.0 mg/kg/injection, schedule: Q01DX005 (ip), vehicle: saline) 96 % of control and 112 % of control; (dose: 20.0 mg/kg/injection, schedule: Q01DX009 (ip), vehicle: saline) 87 % of control and 89 % of control and 98 % of control; (dose: 40.0 mg/kg/injection, schedule: Q01DX005 (ip), vehicle: saline) 93 % of control and 108 % of control. Also, under “dose: 40.0 mg/kg/injection, schedule: Q01DX009 (ip), vehicle: saline”, the T/C is 103 % of control.
For the compound `CS(=O)(=O)Nc1ccc(Nc2c3ccccc3nc3cc([N+](=O)[O-])ccc23)cc1`, the T/C reads like this: (dose: 25.0 mg/kg/injection, schedule: Q04DX003 (ip), vehicle: saline sonified) 100 % of control; (dose: 50.0 mg/kg/injection, schedule: Q04DX003 (ip), vehicle: saline sonified) 95 % of control; (dose: 75.0 mg/kg/injection, schedule: Q04DX003 (ip), vehicle: saline sonified) 87 % of control.
Take `O=C1C(N2CC2)=C(N2CC2)C(=O)C(N2CC2)=C1N1CC1`: the T/C is, setting by setting: (dose: 10.0 micrograms/kg/injection, schedule: Q01DX009 (ip), vehicle: saline) 120 % of control; (dose: 20.0 micrograms/kg/injection, schedule: Q01DX009 (ip), vehicle: saline) 107 % of control; (dose: 80.0 micrograms/kg/injection, schedule: Q01DX009 (ip), vehicle: saline) 95 % of control.
